In ChEMBL document CHEMBL3885881, “DrugMatrix”:

Organism: Rattus norvegicus
Type: toxicity, organism-based, Sprague-Dawley
Settings: in vivo, po, route oral GAVAGE, […]; for ABSOLUTE EOSINOPHIL / ABSOLUTE LYMPHOCYTE / ABSOLUTE MONOCYTE / ABSOLUTE SEGMENTED NEUTROPHIL / BASOPHIL / EOSINOPHIL / ERYTHROCYTE COUNT / HEMATOCRIT / HEMOGLOBIN / LEUKOCYTE COUNT / LYMPHOCYTE / MEAN CORPUSCULAR HEMOGLOBIN / MEAN CORPUSCULAR HEMOGLOBIN CONCENTRATION / MEAN CORPUSCULAR VOLUME / MONOCYTE / NEUTROPHIL / NUCLEATED RED BLOOD CELLS / PLATELET COUNT: tissue Blood; for ALANINE AMINOTRANSFERASE / ALKALINE PHOSPHATASE / ASPARTATE AMINOTRANSFERASE / BLOOD UREA NITROGEN / CARBON DIOXIDE / CHLORIDE / CHOLESTEROL / CREATINE PHOSPHOKINASE / CREATININE / GLUCOSE / LACTATE DEHYDROGENASE / LIPASE / PHOSPHORUS / POTASSIUM / SODIUM / TOTAL BILIRUBIN / TOTAL PROTEIN / URIC ACID: tissue Plasma
[1] = 100 mg/kg, 24 h, dose level Low, time 1 day
[2] = 700 mg/kg, 6 h, dose level High, time 0.25 day
[3] = 700 mg/kg, 24 h, dose level High, time 1 day

Description: DrugMatrix - Regimen: Single

Cc1ccc(C)c(OCCCC(C)(C)C(=O)O)c1 [GEMFIBROZIL]
ABSOLUTE EOSINOPHIL [1]: 126.33 CELLS/uL | ABSOLUTE LYMPHOCYTE [1]: 13618.33 CELLS/uL | ABSOLUTE MONOCYTE [1]: 235.33 CELLS/uL | ABSOLUTE SEGMENTED NEUTROPHIL [1]: 1320 CELLS/uL | BASOPHIL [1]: 0% | EOSINOPHIL [1]: 0.83% | ERYTHROCYTE COUNT [1]: 5.54 x10E6/uL | HEMATOCRIT [1]: 35.43% | HEMOGLOBIN [1]: 13.82 G/DL | LEUKOCYTE COUNT [1]: 15.3 x10E3/uL | LYMPHOCYTE [1]: 89.17% | MEAN CORPUSCULAR HEMOGLOBIN [1]: 25.02 pg | MEAN CORPUSCULAR HEMOGLOBIN CONCENTRATION [1]: 39 G/DL | MEAN CORPUSCULAR VOLUME [1]: 64.12 fL | MONOCYTE [1]: 1.5% | NEUTROPHIL [1]: 8.5% | NUCLEATED RED BLOOD CELLS [1]: 0 /100WBC | PLATELET COUNT [1]: 879.83 x10E3/uL | ALANINE AMINOTRANSFERASE [1]: 82.17 u/L | ALKALINE PHOSPHATASE [1]: 348.5 u/L | ASPARTATE AMINOTRANSFERASE [1]: 88.67 u/L | BLOOD UREA NITROGEN [1]: 11.17 mg/dL | CARBON DIOXIDE [1]: 30.17 mmol/L | CHLORIDE [1]: 101.33 MEQ/L | CHOLESTEROL [1]: 57.17 mg/dL | CREATINE PHOSPHOKINASE [1]: 237 u/L | CREATININE [1]: 0.18 mg/dL | GLUCOSE [1]: 138.33 mg/dL | LACTATE DEHYDROGENASE [1]: 130.5 u/L | LIPASE [1]: 8.67 u/L | PHOSPHORUS [1]: 9.87 mg/dL | POTASSIUM [1]: 6.21 MEQ/L | SODIUM [1]: 146.35 MEQ/L | TOTAL BILIRUBIN [1]: 0.15 mg/dL | TOTAL PROTEIN [1]: 5.83 G/DL | URIC ACID [1]: 1.02 mg/dL | ABSOLUTE EOSINOPHIL [2]: 0 CELLS/uL | ABSOLUTE LYMPHOCYTE [2]: 11512.83 CELLS/uL | ABSOLUTE MONOCYTE [2]: 281.33 CELLS/uL | ABSOLUTE SEGMENTED NEUTROPHIL [2]: 1289.17 CELLS/uL | BASOPHIL [2]: 0% | EOSINOPHIL [2]: 0% | ERYTHROCYTE COUNT [2]: 5.72 x10E6/uL | HEMATOCRIT [2]: 36.68% | HEMOGLOBIN [2]: 14.32 G/DL | LEUKOCYTE COUNT [2]: 13.08 x10E3/uL | LYMPHOCYTE [2]: 87.5% | MEAN CORPUSCULAR HEMOGLOBIN [2]: 25.02 pg | MEAN CORPUSCULAR HEMOGLOBIN CONCENTRATION [2]: 39.02 G/DL | MEAN CORPUSCULAR VOLUME [2]: 64.17 fL | MONOCYTE [2]: 2.33% | NEUTROPHIL [2]: 10.17% | NUCLEATED RED BLOOD CELLS [2]: 0 /100WBC | PLATELET COUNT [2]: 1058.5 x10E3/uL | ALANINE AMINOTRANSFERASE [2]: 68.17 u/L | ALKALINE PHOSPHATASE [2]: 373.33 u/L | ASPARTATE AMINOTRANSFERASE [2]: 85.5 u/L | BLOOD UREA NITROGEN [2]: 9.83 mg/dL | CARBON DIOXIDE [2]: 30.5 mmol/L | CHLORIDE [2]: 95.17 MEQ/L | CHOLESTEROL [2]: 81.83 mg/dL | CREATINE PHOSPHOKINASE [2]: 224.83 u/L | CREATININE [2]: 0.16 mg/dL | GLUCOSE [2]: 138.17 mg/dL | LACTATE DEHYDROGENASE [2]: 127.17 u/L | LIPASE [2]: 12.33 u/L | PHOSPHORUS [2]: 11.42 mg/dL | POTASSIUM [2]: 6.25 MEQ/L | SODIUM [2]: 143.7 MEQ/L | TOTAL BILIRUBIN [2]: 0.68 mg/dL | TOTAL PROTEIN [2]: 6.2 G/DL | URIC ACID [2]: 1.3 mg/dL | ABSOLUTE EOSINOPHIL [3]: 30.33 CELLS/uL | ABSOLUTE LYMPHOCYTE [3]: 15144 CELLS/uL | ABSOLUTE MONOCYTE [3]: 266 CELLS/uL | ABSOLUTE SEGMENTED NEUTROPHIL [3]: 893 CELLS/uL | BASOPHIL [3]: 0% | EOSINOPHIL [3]: 0.17% | ERYTHROCYTE COUNT [3]: 5.34 x10E6/uL | HEMATOCRIT [3]: 34.55% | HEMOGLOBIN [3]: 13.67 G/DL | LEUKOCYTE COUNT [3]: 16.33 x10E3/uL | LYMPHOCYTE [3]: 92.33% | MEAN CORPUSCULAR HEMOGLOBIN [3]: 25.58 pg | MEAN CORPUSCULAR HEMOGLOBIN CONCENTRATION [3]: 39.58 G/DL | MEAN CORPUSCULAR VOLUME [3]: 64.72 fL | MONOCYTE [3]: 1.67% | NEUTROPHIL [3]: 5.83% | NUCLEATED RED BLOOD CELLS [3]: 0.33 /100WBC | PLATELET COUNT [3]: 1050.67 x10E3/uL | ALANINE AMINOTRANSFERASE [3]: 55.83 u/L | ALKALINE PHOSPHATASE [3]: 484.5 u/L | ASPARTATE AMINOTRANSFERASE [3]: 65.17 u/L | BLOOD UREA NITROGEN [3]: 10.67 mg/dL | CARBON DIOXIDE [3]: 28 mmol/L | CHLORIDE [3]: 100 MEQ/L | CHOLESTEROL [3]: 71 mg/dL | CREATINE PHOSPHOKINASE [3]: 320.67 u/L | CREATININE [3]: 0.21 mg/dL | GLUCOSE [3]: 140.83 mg/dL | LACTATE DEHYDROGENASE [3]: 120.67 u/L | LIPASE [3]: 9.67 u/L | PHOSPHORUS [3]: 10.38 mg/dL | POTASSIUM [3]: 5.59 MEQ/L | SODIUM [3]: 146.73 MEQ/L | TOTAL BILIRUBIN [3]: 0.25 mg/dL | TOTAL PROTEIN [3]: 5.97 G/DL | URIC ACID [3]: 1.07 mg/dL
